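1) Cells in 96-well plates. 2) Compound, 48 h, 5 concentrations. 3) Linear interpolation between surrounding doses. 4) Unreached endpoint = highest concentration. At the TGI there is no net growth.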
Columns and labels:
Experiment in all cases: NCI tumour cell line growth inhibition, 48 h
HCC-2998 colon = tested on: HCC-2998 colon
EKVX NSCLC = tested on: EKVX NSCLC
KM12 colon = tested on: KM12 colon
DMS 114 small cell lung = tested on: DMS 114 small cell lung
786-0 renal = tested on: 786-0 renal
UACC-62 melanoma = tested on: UACC-62 melanoma
HCT-15 colon = tested on: HCT-15 colon
RPMI-8226 leukemia = tested on: RPMI-8226 leukemia
SK-MEL-5 melanoma = tested on: SK-MEL-5 melanoma
DMS 273 small cell lung = tested on: DMS 273 small cell lung
K-562 leukemia = tested on: K-562 leukemia
SR leukemia = tested on: SR leukemia
OVCAR-8 ovarian = tested on: OVCAR-8 ovarian
RXF 393 renal = tested on: RXF 393 renal
HOP-62 NSCLC = tested on: HOP-62 NSCLC
UACC-257 melanoma = tested on: UACC-257 melanoma
OVCAR-3 ovarian = tested on: OVCAR-3 ovarian
M19-MEL melanoma = tested on: M19-MEL melanoma
A549 NSCLC = tested on: A549 NSCLC
A498 renal = tested on: A498 renal
CAKI-1 renal = tested on: CAKI-1 renal
SK-OV-3 ovarian = tested on: SK-OV-3 ovarian
MALME-3M melanoma = tested on: MALME-3M melanoma
XF 498 CNS = tested on: XF 498 CNS
COLO 205 colon = tested on: COLO 205 colon
SNB-75 CNS = tested on: SNB-75 CNS
NCI-H23 lung = tested on: NCI-H23 lung
HOP-92 NSCLC = tested on: HOP-92 NSCLC
SW-620 colon = tested on: SW-620 colon
OVCAR-5 ovarian = tested on: OVCAR-5 ovarian
SK-MEL-2 melanoma = tested on: SK-MEL-2 melanoma
NCI-H226 lung = tested on: NCI-H226 lung
SNB-78 CNS = tested on: SNB-78 CNS
CCRF-CEM leukemia = tested on: CCRF-CEM leukemia
KM20L2 colon = tested on: KM20L2 colon
RXF-631 renal = tested on: RXF-631 renal
NCI-H460 lung = tested on: NCI-H460 lung
SF-268 CNS = tested on: SF-268 CNS
TK-10 renal = tested on: TK-10 renal
HOP-18 NSCLC = tested on: HOP-18 NSCLC
UO-31 renal = tested on: UO-31 renal
SNB-19 CNS = tested on: SNB-19 CNS
SK-MEL-28 melanoma = tested on: SK-MEL-28 melanoma
SN12C renal = tested on: SN12C renal
U251 CNS = tested on: U251 CNS
IGROV1 ovarian = tested on: IGROV1 ovarian
MOLT-4 leukemia = tested on: MOLT-4 leukemia
OVCAR-4 ovarian = tested on: OVCAR-4 ovarian
M14 melanoma = tested on: M14 melanoma
LXFL 529 NSCLC = tested on: LXFL 529 NSCLC
LOX IMVI melanoma = tested on: LOX IMVI melanoma
SF-295 CNS = tested on: SF-295 CNS
HL-60(TB) leukemia = tested on: HL-60(TB) leukemia
HCT-116 colon = tested on: HCT-116 colon
DLD-1 colon = tested on: DLD-1 colon
ACHN renal = tested on: ACHN renal
SF-539 CNS = tested on: SF-539 CNS
HT29 colon = tested on: HT29 colon
NCI-H522 lung = tested on: NCI-H522 lung

Measured: TGI

C=C1CCC(OC(C)=O)C2(C)C(OC(C)=O)CC3OC3(C)C2C(OC(C)=O)C2C(C)C(=O)OC2C1Cl (configuration not stated)
not listed: NCI-H522 lung
> 100 µM: all other assays above

COc1cc2c(cc1OC)C(C#N)(Cc1ccccc1)N(C(=O)c1ccccc1)C=C2 (configuration not stated)
76.1 µM: RXF 393 renal
87 µM: XF 498 CNS
62.9 µM: SK-MEL-5 melanoma
53.2 µM: DMS 114 small cell lung
not listed: A549 NSCLC | A498 renal | CAKI-1 renal | OVCAR-4 ovarian | DLD-1 colon
> 100 µM: all other assays above

— PubChem BioAssay (NCI)
